Reference: the supplement of paper PMC10307832

Key:
Assay in all cases: relative viability (nuclei count vs DMSO), 5 days (fraction); higher = more cells survive
[1] = compound: CS(=O)(=O)CCNCc1ccc(-c2ccc3ncnc(Nc4ccc(OCc5cccc(F)c5)c(Cl)c4)c3c2)o1 [Lapatinib] + O=C(c1cc(Cc2n[nH]c(=O)c3ccccc23)ccc1F)N1CCN(C(=O)C2CC2)CC1 [Olaparib] (partner 8 µM)
How it was run: (§1)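 Lung cancer cell lines were pin-tool dosed in 1536-well plates on the day after seeding, with either a lone drug or a fixed anchor-drug dose plus five library-drug doses (not always all listed) in √10 steps. Nuclei were counted on 4× images after 5 days. Relative viability is the ratio of treated-well to vehicle-well nuclei counts, with each value a median of duplicate plates.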

[2] = compound: CS(=O)(=O)CCNCc1ccc(-c2ccc3ncnc(Nc4ccc(OCc5cccc(F)c5)c(Cl)c4)c3c2)o1 [Lapatinib] + N=C(N)NC(=N)NCCc1ccccc1 [Phenformin] (partner 250 µM)
How it was run: as §1

[3] = compound: CC1=NC=CC(=C1)C2=CC=C(C=C2)CC(=O)NC3=CC=C(C=C3)C4=CN=CC=C4 [Wnt-C59] + CC(=O)c1c(C)c2cnc(Nc3ccc(N4CCNCC4)cn3)nc2n(C2CCCC2)c1=O [Palbociclib] (partner 0.5 µM)
How it was run: as §1

[4] = compound: CC1=NC=CC(=C1)C2=CC=C(C=C2)CC(=O)NC3=CC=C(C=C3)C4=CN=CC=C4 [Wnt-C59] + CC1(C)CCC(c2ccc(Cl)cc2)=C(CN2CCN(c3ccc(C(=O)NS(=O)(=O)c4ccc(N[C@H](CCN5CCOCC5)CSc5ccccc5)c(S(=O)(=O)C(F)(F)F)c4)cc3)CC2)C1 [Navitoclax] (partner 0.5 µM)
How it was run: as §1

Cell Line UMC-11 has a relative viability ([1]; first compound 0.02 µM) of 0.299, a relative viability ([1]; first compound 0.06325 µM) of 0.342 and a relative viability ([1]; first compound 0.2 µM) of 0.347. It also gave a relative viability ([1]; first compound 0.6325 µM) of 0.376, a relative viability ([1]; first compound 2 µM) of 0.327 and a relative viability ([2]; first compound 0.02 µM) of 0.351. It also gave a relative viability ([2]; first compound 0.06325 µM) of 0.306, a relative viability ([2]; first compound 0.2 µM) of 0.297 and a relative viability ([2]; first compound 0.6325 µM) of 0.321. The relative viability ([2]; first compound 2 µM) was 0.298, the relative viability ([3]; first compound 0.001 µM) was 0.337 and the relative viability ([3]; first compound 0.01 µM) was 0.319. The relative viability ([3]; first compound 0.03162 µM) was 0.361, the relative viability ([3]; first compound 0.1 µM) was 0.305 and the relative viability ([4]; first compound 0.001 µM) was 0.312. For the same cell line, the relative viability ([4]; first compound 0.01 µM) was 0.315, the relative viability ([4]; first compound 0.03162 µM) was 0.265 and the relative viability ([4]; first compound 0.1 µM) was 0.339.
